From patent US12419874B2, “GLP-1R agonist compound and use thereof” (Chongqing Pharmaceutical Research Institute Co., Ltd., priority 2024, dated 2025) come the findings set out here.

The structures appear in SMILES notation.

Series [1] is described as follows: In vivo pharmacokinetics in rats, oral. Also noted: species or system SD rats. The note with it: for AUC(0-t) / Cmax / half-life: rat, plasma, SD rats, PO; for maximum plasma concentration Cmax compared with the control compound / oral exposure AUC compared with the control compound: rats, oral, versus example compound 67 in WO2018056453, in words. As to the method: The compounds of the present disclosure were formulated with […]+90% 100 mM glycine-64 mM NaOH, and orally administered to fasted SD rats at a dose of 1 mg/kg or 5 mg/kg, respectively. At different time points (0.25, 0.5, 1.0, 2.0, 4.0, 5.0, 6.0, 7.0, 8.0, and 24 h) after administration, about 50 μL of blood samples were collected from veins into anticoagulant tubes containing EDTA-K2, and centrifuged to separate plasma. The plasma concentrations of the compounds were determined by LC-MS/MS. WinNonlin was used to calculate the pharmacokinetic parameters by using the non-compartmental analysis, and the experimental results were listed in Table 9.

Series [2] addresses T1, GLP-1R (Homo sapiens, UniProt P43220). The series is described as follows: GLP-1R agonistic activity by One-Lite luciferase assay in HEK293-GLP-1R-luc cells (Example 59). The note with it: 6 h incubation, read-out: cAMP EC50. Type of series: cell-based. In a few lines: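 HEK293 cells stably expressing GLP-1R with a cAMP-responsive luciferase reporter, 30000 cells/well, exposed to compound for 6 h at 37 °C. Chemiluminescence read after 3 min with One-Lite substrate at room temperature; % activity normalised to positive and vehicle controls, EC50 from a four-parameter dose-response fit.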

The subject of series [3] is GLP-1R humanized C57BL/6N mice fed with high-fat diets. The series is described as follows: In vivo efficacy on body weight and food intake in high-fat diet hGLP-1R mice. The note with it: for Cumulative Food Intake on Day 27 / Change Rate of Body Weight on Day 27: gavage once daily; for Change Rate of Body Weight on Day 27: corrected by Vehicle. As to the method:
The effects of long-term administration of the compounds of the present disclosure on the weight and food intake of GLP-1R humanized C57BL/6N mice fed with high-fat diets were evaluated.
• five-week-old male C57BL/6N hGLP-1R mice; • 60% high-fat diet (HFD); electronic balance. 3. Experimental Method • (1) C57BL/6N_hGLP-1R mice were fed with 60% high-fat diets until the end of the experiment. • (2) At the 10th week of HFD feeding, the model mice were randomly divided into groups according to their body weight, with 6 to 7 mice in each group. Subsequently, the single-caged mice were adaptively fed for 2 weeks. The first group was Vehicle group (Vehicle: 10% PEG 400+10% propylene glycol+80% glycine-NaOH buffer), and administered with the Vehicle; the remaining groups were drug treatment groups; the duration of administration was 27 days. • (3) The day of drug administration was defined as Day 0. At each administration, the animals were weighed and the data were recorded, and the mice were treated depending upon their body weight. • (4) The food intake of the mice in each group was measured once a day from Day 0 of the experiment. Specifically, the diets were changed after each weighing and administration, and the addition amounts and residual amounts thereof were recorded. 4. Experimental Data Processing and Statistical Analysis
The rates of change in the body weight of mice after administration were summarized and statistically analyzed.
The rate of change in the body weight corrected by Vehicle was calculated: (((BWt/BW0)−1)−(BWt-vec-avg))*100%;
BWt represented the body weight of mouse in drug treatment group on Day t; BW0 represented the body weight of mouse in drug treatment group on Day 0; BWt-vec-avg represented the average body weight of mice in Vehicle group on Day t for drug treatment groups.
The cumulative food intake of mice after drug administration was summarized and statistically analyzed.
Cumulative food intake was calculated: addition amounts (g)—residual amounts (g).
The cumulative food intake was the sum of daily food intake of each animal during the period of administration.

Series [4] has as its target T1, GLP-1R. The series is described as follows: GLP-1R agonistic activity by cAMP detection kit in HEK293-GLP-1R-luc cells (Example 58). Type of series: cell-based. Conditions: 30 min incubation. As to the method:
The agonistic activities of the compounds of the present disclosure on GLP-1R were evaluated by detecting the generation of cAMP.
• (1) Cell line: HEK293-GLP-1R-luc Stable Cell Line (Cobioer, CBP71117); • (2) Culture medium: DMEM+10% FBS (Gibco); • (3) Kit: cAMP detection kit (PerkinElmer). 2. Experimental Procedures • (1) HEK293-GLP1R cells were inoculated in a 384-well plate at a density of 2000 cells per well; • (2) 4× working solution of each compound was formulated; • (3) 5 μL of 4× working solution of each compound was added to corresponding well and incubated at 37° C. for 30 min; • (4) 10 μL of Eu-cAMP tracer diluted with Lysis Buffer (1/50) was added to each well; • (5) 10 μL of Ulight-anti-cAMP diluted with Lysis Buffer (1/150) was added to each well; • (6) The plate was incubated at room temperature for 1 h; • (7) The plate was read by a multimode microplate reader (excitation wavelength: 320 nm; emission wavelength: 665 nm and 620 nm). 3. Data Analysis • (1) % Activity was calculated by the following formula: % Activity=100−(Signalcmpd−SignalAve-PC)/(SignalAve-VC−SignalAve-PC)×100 • (2) The dose-response curve was plotted to calculate EC50: Y=Bottom+(Top−Bottom)/(1+10^(Log EC50−X)*HillSlope)) • X: log of agonist concentration; Y: Activity. 4. Experimental Results

The nature of series [5]: In vivo pharmacokinetics in Macaca fascicularis, intravenous. As to the method:
A clear solution of “example compound 67 in WO2018056453” in 10% PEG/90% 100 mM glycine-NaOH and a clear solution of “Compound 1” in 10% PEG/90% 100 mM glycine-NaOH were prepared. The above solutions were injected into subcutaneous veins of the fore limbs of male Macaca fascicularis (n=2) at a dose of 0.12 mg/kg, respectively. At different time points (0.083, 0.25, 0.5, 1.0, 2.0, 4.0, 8.0, 24.0, and 36 h) after administration, blood samples were collected from veins into anticoagulant tubes containing EDTA-K2, and centrifuged to separate plasma.
The drug concentrations in the plasma were determined by the LC-MS/MS method, and the pharmacokinetic software (e.g., winNonlin Version 6.3) was used to calculate the related pharmacokinetic parameters as shown in Table 10 by using the log-linear trapezoidal rule of the non-compartmental analysis.

[6] abbreviates: Macaca fascicularis, versus example compound 67 in WO2018056453, in words.
Setting [7] is: cynomolgus monkey, plasma, male Macaca fascicularis, 0.12 mg/kg.

T1 sequence (P43220 24-463): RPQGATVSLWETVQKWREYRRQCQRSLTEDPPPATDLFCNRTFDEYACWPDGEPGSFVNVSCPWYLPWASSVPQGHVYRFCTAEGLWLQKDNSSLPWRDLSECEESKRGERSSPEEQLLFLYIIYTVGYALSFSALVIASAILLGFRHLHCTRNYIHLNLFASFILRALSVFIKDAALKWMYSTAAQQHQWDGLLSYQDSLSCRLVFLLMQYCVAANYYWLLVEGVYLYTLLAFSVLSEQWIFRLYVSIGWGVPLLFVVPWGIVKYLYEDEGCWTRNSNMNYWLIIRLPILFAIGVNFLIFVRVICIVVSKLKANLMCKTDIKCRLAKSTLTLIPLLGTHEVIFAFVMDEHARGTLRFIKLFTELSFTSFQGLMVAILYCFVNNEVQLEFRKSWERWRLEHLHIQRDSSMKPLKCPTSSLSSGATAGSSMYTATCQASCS

In series [1] (1 mg/kg), `Cc1cc(-n2nc3c(c2-n2ccn(-c4ccc5c(cnn5C)c4F)c2=O)[C@H](C)N(C(=O)c2cc4cc([C@H]5CCOC(C)(C)C5)ccc4n2[C@@]2(c4noc(=O)[nH]4)C[C@@H]2C)CC32CC2)cc(C)c1F` [Compound 1] gave an AUC(0-t) of 2300 ng·h/mL, a Cmax of 213 ng/mL and a half-life of 10 h. In series [1] (5 mg/kg), this compound had an area under the curve AUC(0-t) of 11800 ng·h/mL, a Cmax of 1080 ng/mL and a half-life of 12.9 h. In series [1], the “maximum plasma concentration Cmax compared with the control compound” value is “higher” and the “oral exposure AUC compared with the control compound” value was “higher”. Also, on GLP-1R [2], the concentration for a half-maximal effect (EC50) was no more than 20 nM. Besides, in series [3] (0.3 mpk), the “Cumulative Food Intake on Day 27” value was 73.91 ± 6.71 g and the “Change Rate of Body Weight on Day 27” value is reported as −15.04 ± 1.90%. For the same compound, in series [3] (1.5 mpk), the “Cumulative Food Intake on Day 27” value came to 70.01 ± 5.88 g and the “Change Rate of Body Weight on Day 27” value was −18.46 ± 1.98%. In series [3] (3.0 mpk), the “Cumulative Food Intake on Day 27” value turned out to be 62.75 ± 6.97 g and the “Change Rate of Body Weight on Day 27” value is −23.78 ± 1.61%. Further, the “reduction of the body weight and inhibition of the food intake” value in series [3] (long-term administration, 0.3 to 3 mpk, in words) is recorded as “excellent effects”. Also, the 50% effective concentration (EC50) on GLP-1R [4] is no more than 0.1 nM. Further, in series [5] (setting [6]), the “clearance (Cl) compared with the control compound” value is listed as “lower”, the “exposure (AUC) compared with the control compound” value is listed as “higher” and the “half-life (T1/2) compared with the control compound” value is reported as “longer”. Besides, in series [5] (setting [7]), the exposure AUC(0-t) came to 754 ng·h/mL, the clearance was 2.63 mL/min/kg and the half-life is 6.08 h.
With `Cc1cc(-n2nc3c(c2-n2ccn(-c4ccc5c(cnn5C)c4F)c2=O)[C@H](C)N(C(=O)c2cc4cc([C@H]5CCOC(C)(C)C5)ccc4n2[C@@]2(c4noc(=O)[nH]4)C[C@@H]2C)CC32CCOCC2)cc(C)c1F` [Compound 43], the results for the half-maximal effective concentration (EC50) at GLP-1R [2] and on GLP-1R [4] were no more than 20 nM and no more than 0.1 nM, respectively.
On to `Cc1cc(-n2nc3c(c2-n2ccn(-c4ccc5c(cnn5C)c4F)c2=O)[C@H](C)N(C(=O)c2cc4cc([C@H]5CCOC(C)(C)C5)ccc4n2[C@@]2(c4noc(=O)[nH]4)C[C@@H]2C)CC32CCNCC2)cc(C)c1F` [Compound 57], for which the EC50 on GLP-1R [2] was no more than 20 nM; at GLP-1R [4], no more than 0.1 nM.
The matching figures for `Cc1cc(-n2nc3c(c2-n2ccn(-c4ccc5c(cnn5C)c4F)c2=O)[C@H](C)N(C(=O)c2cc4cc([C@H]5CCOC(C)(C)C5)ccc4n2[C@@]2(c4noc(=O)[nH]4)C[C@@H]2C)CC32CCN(C)CC2)cc(C)c1F` [Compound 59]: no more than 20 nM and no more than 0.1 nM.
In series [1] (1 mg/kg), `Cc1cc(-n2nc3c(c2-n2ccn(-c4ccc5c(cnn5C)c4F)c2=O)[C@H](C)N(C(=O)c2cc4cc([C@H]5CCOC(C)(C)C5)ccc4n2[C@@]2(c4noc(=O)[nH]4)C[C@@H]2C)CC32CC(F)(F)C2)cc(C)c1F` [Compound 180] gave an area under the curve AUC(0-t) of 1120 ng·h/mL, a Cmax of 129 ng/mL and a half-life of 6.4 h. For the same compound, the EC50 on GLP-1R [2] was no more than 20 nM.
The matching figures for `C=C1CC2(C1)CN(C(=O)c1cc3cc([C@H]4CCOC(C)(C)C4)ccc3n1[C@@]1(c3noc(=O)[nH]3)C[C@@H]1C)[C@@H](C)c1c2nn(-c2cc(C)c(F)c(C)c2)c1-n1ccn(-c2ccc3c(cnn3C)c2F)c1=O` [Compound 218]: 990 ng·h/mL, 110 ng/mL, 11.6 h and no more than 20 nM.
On to `Cc1cc(-n2nc3c(c2-n2ccn(-c4ccc5nn(CC(F)(F)F)cc5c4F)c2=O)[C@H](C)N(C(=O)c2cc4cc([C@H]5CCOC(C)(C)C5)ccc4n2[C@@]2(c4noc(=O)[nH]4)C[C@@H]2C)CC32CC2)cc(C)c1F` [Compound 224], for which the EC50 on GLP-1R [2] lay within 20 to 100 nM.
As to `Cc1cc(-n2nc3c(c2-n2ccn(-c4ccc5c(cnn5C)c4F)c2=O)[C@H](C)N(C(=O)c2cc4cc([C@H]5CCOC(C)(C)C5)ccc4n2[C@@]2(c4noc(=O)[nH]4)C[C@@H]2C)CC32CC2(F)F)cc(C)c1F` (stereo partly drawn) [Compound 225], the EC50 at GLP-1R [2] is no more than 20 nM.
Consider `Cc1cc(-n2nc3c(c2-n2ccn(-c4ccc5c(cnn5C)c4F)c2=O)[C@H](C)N(C(=O)c2cc4cc([C@H]5CCOC(C)(C)C5)ccc4n2[C@@]2(c4noc(=O)[nH]4)C[C@@H]2C)CC32C[C@H]2C)cc(C)c1F` (stereo partly drawn) [Compound 226], for which, in series [1] (1 mg/kg), the AUC(0-t) is 1480 ng·h/mL, the Cmax was found to be 160 ng/mL and the half-life is 9.3 h. Further, the EC50 at GLP-1R [2] is no more than 20 nM.
With `Cc1cc(-n2nc3c(c2-n2ccn(-c4ccc5c(cnn5C)c4F)c2=O)[C@H](C)N(C(=O)c2cc4cc([C@H]5CCOC(C)(C)C5)ccc4n2[C@@]2(c4noc(=O)[nH]4)C[C@@H]2C)CC32C[C@@H]2C)cc(C)c1F` (stereo partly drawn) [Compound 227], the EC50 at GLP-1R [2] fell in the range of 20 to 100 nM.
For the compound `Cc1cc(-n2nc3c(c2-n2ccn(-c4ccc5c(cnn5C)c4F)c2=O)[C@H](C)N(C(=O)c2cc4cc([C@H]5CCOC(C)(C)C5)ccc4n2[C@@]2(c4noc(=O)[nH]4)C[C@@H]2C)CC32CC2F)cc(C)c1F` (stereo partly drawn) [Compound 228], in series [1] (1 mg/kg), the exposure AUC(0-t) is 2400 ng·h/mL, the peak level (Cmax) was 216 ng/mL and the half-life was 13 h. Besides, in series [1], the “maximum plasma concentration Cmax compared with the control compound” value is recorded as “higher” and the “oral exposure AUC compared with the control compound” value is reported as “higher”. In addition, the EC50 on GLP-1R [2] is no more than 20 nM.
Regarding `CNC1CCC2(C1)CN(C(=O)c1cc3cc([C@H]4CCOC(C)(C)C4)ccc3n1[C@@]1(c3noc(=O)[nH]3)C[C@@H]1C)[C@@H](C)c1c2nn(-c2cc(C)c(F)c(C)c2)c1-n1ccn(-c2ccc3c(cnn3C)c2F)c1=O` (stereo partly drawn) [Compound 229], at GLP-1R [2], the EC50 is no more than 20 nM.
